Test results taken from patent US20130109682A1, “CYCLIC ETHER COMPOUNDS USEFUL AS KINASE INHIBITORS” (NOVARTIS AG, priority 2010, published 2013).
pIC50: −log10 of the molar value. Like-named read-outs stand apart in the source and are kept apart here.

Experiments:
Type in all cases: biochemical
PKCα = PKCα (Homo sapiens, UniProt P17252); experiment: PKCα kinase Caliper assay; conditions: read-out: PKC IC50
Procedure: PKCα and cABLT315 Kinase Caliper Assays
Assays were performed in 384 well microtiter plates. Each assay plate contained 8-point serial dilutions for test compounds, as well as two 16-point serial dilutions of staurosporine as reference compound, plus 16 high- and 16 low controls. Liquid handling and incubation steps were done on a Thermo CatX workstation equipped with a Innovadyne Nanodrop Express. Between pipetting steps, tips were cleaned in wash cycles using wash buffer. Plates with terminated kinase reactions were transferred to the Caliper LC3000 workstations for reading. Phosphorylated and unphosphorylated peptides were separated using the Caliper microfluidic mobilitishift technology and Kinase activities were calculated from the amounts of formed phospho-peptide.
1. 0.05 μA Compound (start with 1.8 mM in 90% DMSO/10% H2O)
2. +4.5 μl 2× peptide/ATP solution
3. +4.5 μl 2× enzyme solution
4. Incubate for 60 min at 30° C.
4. +16 μl stop/run buffer
Independent of the kinase, all reactions were done performed in 50 mM HEPES, pH 7.5, 1 mM DTT, 0.02% Tween20, 0.02% BSA, and 0.6% DMSO.

GSK3β = GSK3β (Homo sapiens, UniProt P49841); experiment: GSK3β ATP depletion assay; conditions: read-out: GSK3b IC50
In short: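 Kinase activity is read as ATP consumption: luciferase luminescence reports the ATP remaining once roughly half of the 2 μM ATP is used. Reaction mix: 5 nM GSK3β, 10 μM b-CREB peptide, 50 mM Tris pH 7.5, 15 mM MgCl2, 1 mM DTT, 0.1% BSA, 2.5% DMSO. Enzyme and peptide are preincubated 15 min before ATP is added.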

FLT3D835Y kinase = target: T1, FLT3D835Y kinase (Homo sapiens, UniProt P36888, D835Y); experiment: FLT3D835Y kinase inhibition assay (LanthaScreen TR-FRET); conditions: read-out: FLT3 IC50
T1 sequence (P36888 27-993 D835Y): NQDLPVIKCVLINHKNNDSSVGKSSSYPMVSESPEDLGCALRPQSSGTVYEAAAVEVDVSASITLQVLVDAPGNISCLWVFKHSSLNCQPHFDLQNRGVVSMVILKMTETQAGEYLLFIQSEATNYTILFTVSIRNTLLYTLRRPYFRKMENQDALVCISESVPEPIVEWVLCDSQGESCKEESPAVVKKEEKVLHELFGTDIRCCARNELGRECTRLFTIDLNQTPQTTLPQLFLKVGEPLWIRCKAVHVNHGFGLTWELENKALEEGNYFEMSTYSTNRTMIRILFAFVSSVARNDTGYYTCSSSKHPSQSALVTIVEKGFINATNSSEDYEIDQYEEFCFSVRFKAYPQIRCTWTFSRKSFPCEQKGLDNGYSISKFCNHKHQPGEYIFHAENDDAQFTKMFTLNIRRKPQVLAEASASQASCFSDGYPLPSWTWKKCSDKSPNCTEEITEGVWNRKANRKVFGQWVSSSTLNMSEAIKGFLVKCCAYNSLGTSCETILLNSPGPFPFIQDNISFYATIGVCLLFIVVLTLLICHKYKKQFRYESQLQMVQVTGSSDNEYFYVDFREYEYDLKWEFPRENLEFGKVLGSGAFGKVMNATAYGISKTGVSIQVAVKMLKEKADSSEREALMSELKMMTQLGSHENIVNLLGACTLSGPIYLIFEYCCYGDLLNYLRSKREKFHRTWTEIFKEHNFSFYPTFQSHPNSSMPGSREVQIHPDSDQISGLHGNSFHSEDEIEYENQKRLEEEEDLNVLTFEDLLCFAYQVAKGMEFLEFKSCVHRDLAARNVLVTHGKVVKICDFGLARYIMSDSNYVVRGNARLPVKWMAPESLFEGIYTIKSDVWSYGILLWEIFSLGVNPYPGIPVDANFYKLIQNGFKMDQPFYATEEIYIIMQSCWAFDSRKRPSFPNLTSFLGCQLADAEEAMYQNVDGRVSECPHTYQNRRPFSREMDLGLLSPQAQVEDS
Procedure: FLT3D835Y Kinase Inhibition Assay
LanthaScreen™ is the detection of Time-Resolved Fluorescence Resonance Energy Transfer (TR-FRET) using lanthanide chelates to measure interactions between various binding partners. The application of TR-FRET to assay kinase activity was first described by Mathis (1995). A TR-FRET assay was used to measure FLT3D835Y kinase inhibitory activity. The assay panel was run on a Biomek FX liquid handling workstations. To the assay plates containing […] compound or control solutions, 4.5 μL of buffer A (50 mM TRIS-HCl pH 7.4, 2 mM DTT, 0.02% Tween 20, 0.02 mM Na3VO4, H2O nanpure) including a generic concentration of ATP (2 μM f.c.) was added per well, followed by […] of buffer B (4 uM ATP in Buffer A) including a generic concentration of polyEAY (50 nM f.c.), FLT3D835Y kinase, and divalent cations. Final concentration of kinase and cations were: [FLT3D835Y kinase]=5.7 nM, [Mg]=3 mM, [Mn]=3 mM. After 1 hour of incubation the kinase reactions were stopped by the addition of 4.5 μL of stop solution D (50 mM EDTA, 20 mM TRIS-HCl pH 7.4, 0.04% NP-40) immediately followed by 4.5 μL of buffer A (50 mM TRIS-HCl pH 7.4, 2 mM DTT, 0.02% Tween 20, 0.02 mM Na3VO4, H2O nanpure) including the Tb-labeled P-20 antibody to give a total detection volume of […]. After an incubation time of 45 min in the dark, the plates were transferred into the Pherastar fluorescence reader for counting. The effect of compound on the enzymatic activity was obtained from the linear progress curves and determined from one reading (end point measurement).

Sequence of GSK3β (P49841 whole entry, species assumed): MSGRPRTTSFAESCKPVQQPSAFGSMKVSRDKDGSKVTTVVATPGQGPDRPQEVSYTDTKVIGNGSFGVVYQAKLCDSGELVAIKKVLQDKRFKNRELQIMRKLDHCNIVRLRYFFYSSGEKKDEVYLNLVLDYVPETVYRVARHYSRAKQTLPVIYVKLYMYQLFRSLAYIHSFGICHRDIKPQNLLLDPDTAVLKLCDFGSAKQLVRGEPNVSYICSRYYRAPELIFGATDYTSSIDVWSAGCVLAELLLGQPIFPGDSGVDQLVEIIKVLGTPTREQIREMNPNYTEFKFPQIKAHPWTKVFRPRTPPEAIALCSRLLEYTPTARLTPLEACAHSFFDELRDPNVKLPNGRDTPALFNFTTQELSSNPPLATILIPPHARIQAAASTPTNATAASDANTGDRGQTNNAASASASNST

Compound	pIC50 (PKCα; PKCα Caliper assay)	pIC50 (GSK3β; ATP depletion assay)	pIC50 (FLT3D835Y kinase)	pIC50 (PKCα)	pIC50 (GSK3β)
Nc1ncc(-c2ccccc2)nc1C(=O)Nc1cnccc1[C@@H]1C[C@H](N)[C@]2(O)CCC[C@@H]2O1 [Example 185, 3-amino-N-(4-((2S,4S,4aR,7aS)-4-amino-4a-hydroxyoctahydrocyclopenta[b]pyran-2-yl)pyridin-3-yl)-6-phenylpyrazine-2-carboxamide]	6.19	6.17	6.00	–	–
Nc1ncc(-c2ccccc2)nc1C(=O)Nc1cnccc1[C@@H]1C[C@H](O)[C@]2(O)CCC[C@@H]2O1 [Example 186, 3-amino-N-(4-((2S,4S,4aR,7aS)-4,4a-dihydroxyoctahydrocyclopenta[b]pyran-2-yl)pyridin-3-yl)-6-phenylpyrazine-2-carboxamide]	–	–	5.80	6.12	7.40
CC[C@]1(O)[C@H](N)C[C@H](c2ccncc2NC(=O)c2nc(-c3ccccc3)cnc2N)O[C@@H]1C [Example 187, 3-amino-N-(4-((2R,4R,5S,6R)-4-amino-5-ethyl-5-hydroxy-6-methyltetrahydro-2H-pyran-2-yl)pyridin-3-yl)-6-phenylpyrazine-2-carboxamide]	7.30	8.48	8.77	–	–
CC[C@]1(O)[C@H](C)O[C@H](c2ccncc2NC(=O)c2nc(-c3ccccc3)cnc2N)C[C@@H]1N [Example 189, 3-amino-N-(4-((2S,4S,5R,6S)-4-amino-5-ethyl-5-hydroxy-6-methyltetrahydro-2H-pyran-2-yl)pyridin-3-yl)-6-phenylpyrazine-2-carboxamide]	6.15	7.15	6.77	–	–
Nc1ncc(-c2ccccc2)nc1C(=O)Nc1cnccc1[C@H]1C[C@@H](O)[C@@]2(O)CCC[C@H]2O1 [Example 195, 3-amino-N-(4-((2R,4R,4aS,7aR)-4,4a-dihydroxyoctahydrocyclopenta[b]pyran-2-yl)pyridin-3-yl)-6-phenylpyrazine-2-carboxamide]	–	–	8.46	6.64	9.00
O=C1CC[C@H]2O[C@@H](c3ccncc3NC(=O)c3ccc(F)c(-c4c(F)cccc4F)n3)C[C@@H](O)[C@@H]2N1 [Example 196, 6-(2,6-difluorophenyl)-5-fluoro-N-(4-((2R,4R,4aS,8aR)-4-hydroxy-6-oxooctahydro-2H-pyrano[3,2-b]pyridin-2-yl)pyridin-3-yl)picolinamide]	–	–	< 5.00	< 5.00	6.19
Nc1ncc(-c2ccccc2)nc1C(=O)Nc1cnccc1[C@H]1C[C@@H](N)[C@@]2(O)CCCC[C@H]2O1 [Example 197, 3-amino-N-(4-((2R,4R,4aS,8aR)-4-amino-4a-hydroxyoctahydro-2H-chromen-2-yl)pyridin-3-yl)-6-phenylpyrazine-2-carboxamide]	7.39	8.10	8.85	–	–

The remaining lines, values ahead:

pIC50 (PKCα; PKCα Caliper assay)	pIC50 (GSK3β; ATP depletion assay)	pIC50 (FLT3D835Y kinase)	pIC50 (PKCα)	pIC50 (GSK3β)	Compound
7.51	8.12	8.74	–	–	Nc1ncc(-c2ccccc2)nc1C(=O)Nc1cnccc1[C@H]1C[C@@H](N)[C@H]2CCC[C@H]2O1 [Example 199, 3-amino-N-(4-((2R,4R,4aR,7aR)-4-aminooctahydrocyclopenta[b]pyran-2-yl)pyridin-3-yl)-6-phenylpyrazine-2-carboxamide]
–	–	5.38	< 5.00	6.54	N[C@@H]1C[C@H](c2ccncc2NC(=O)c2ccc(F)c(-c3c(F)cccc3F)n2)O[C@@H]2CCC[C@]12O [Example 210, N-(4-((2R,4R,4aS,7aR)-4-amino-4a-hydroxyoctahydrocyclopenta[b]pyran-2-yl)pyridin-3-yl)-6-(2,6-difluorophenyl)-5-fluoropicolinamide]
–	–	5.46	< 5.00	6.25	Nc1cnc(-c2c(F)cccc2F)nc1C(=O)Nc1cnccc1[C@H]1C[C@@H](N)[C@@]2(O)CCC[C@H]2O1 [Example 213, 5-amino-N-(4-((2R,4R,4aS,7aR)-4-amino-4a-hydroxyoctahydrocyclopenta[b]pyran-2-yl)pyridin-3-yl)-2-(2,6-difluorophenyl)pyrimidine-4-carboxamide]
< 5.00	6.01	5.77	–	–	C[C@H]1O[C@@H](c2ccncc2NC(=O)c2ccc(F)c(-c3c(F)cccc3F)n2)C[C@@H](N)[C@]1(C)O [Example 219, N-(4-((2R,4R,5S,6R)-4-amino-5-hydroxy-5,6-dimethyltetrahydro-2H-pyran-2-yl)pyridin-3-yl)-6-(2,6-difluorophenyl)-5-fluoropicolinamide]
< 5.00	6.44	5.80	–	–	N[C@@H]1C[C@H](c2ccncc2NC(=O)c2ccc(F)c(-c3c(F)cccc3F)n2)O[C@@H]2CCC[C@H]12 [Example 224, N-(4-((2R,4R,4aR,7aR)-4-aminooctahydrocyclopenta[b]pyran-2-yl)pyridin-3-yl)-6-(2,6-difluorophenyl)-5-fluoropicolinamide]
7.26	8.19	6.85	–	–	CC(C)(C)[C@@H]1O[C@H](c2ccncc2NC(=O)c2nc(-c3ccccc3)cnc2N)C[C@@H](N)[C@H]1O [Example 227, 3-amino-N-(4-((2S,4R,5R,6S)-4-amino-6-tert-butyl-5-hydroxytetrahydro-2H-pyran-2-yl)pyridin-3-yl)-6-phenylpyrazine-2-carboxamide]
7.12	7.89	8.57	–	–	C[C@H]1O[C@@H](c2ccncc2NC(=O)c2nc(-c3ccccc3)cnc2N)C[C@@H](N)[C@]1(C)O [Example 228, 3-amino-N-(4-((2R,4R,5S,6R)-4-amino-5-hydroxy-5,6-dimethyltetrahydro-2H-pyran-2-yl)pyridin-3-yl)-6-phenylpyrazine-2-carboxamide]
6.43	7.41	7.03	–	–	C[C@@H]1O[C@H](c2ccncc2NC(=O)c2nc(-c3ccccc3)cnc2N)C[C@H](N)[C@@]1(C)O [Example 229, 3-amino-N-(4-((2S,4S,5R,6S)-4-amino-5-hydroxy-5,6-dimethyltetrahydro-2H-pyran-2-yl)pyridin-3-yl)-6-phenylpyrazine-2-carboxamide]
5.96	5.34	6.57	–	–	N[C@H]1C[C@@H](c2ccncc2NC(=O)c2csc(-c3c(F)cccc3F)n2)O[C@H]2CCC[C@H]21 [Example 230, N-(4-((2S,4S,4aS,7aS)-4-aminooctahydrocyclopenta[b]pyran-2-yl)pyridin-3-yl)-2-(2,6-difluorophenyl)thiazole-4-carboxamide]
